These molecules were tested against T1, KCNT1 (KNa1.1, Slack) (Homo sapiens, UniProt Q5JUK3) (assay: KCNT1 patch clamp assay (SyncroPatch 384PE automated patch clamp)). Settings: tetracycline inducible HEK-TREX cell line; perforated patch; step from −80 mV to 0 mV; room temperature; read-out: KCNT1-WT IC50.
T1 construct: expressed in transfected cells; host or cells: HEK-TREX (tetracycline-inducible HEK cell line)
T1 sequence (Q5JUK3 1-1230): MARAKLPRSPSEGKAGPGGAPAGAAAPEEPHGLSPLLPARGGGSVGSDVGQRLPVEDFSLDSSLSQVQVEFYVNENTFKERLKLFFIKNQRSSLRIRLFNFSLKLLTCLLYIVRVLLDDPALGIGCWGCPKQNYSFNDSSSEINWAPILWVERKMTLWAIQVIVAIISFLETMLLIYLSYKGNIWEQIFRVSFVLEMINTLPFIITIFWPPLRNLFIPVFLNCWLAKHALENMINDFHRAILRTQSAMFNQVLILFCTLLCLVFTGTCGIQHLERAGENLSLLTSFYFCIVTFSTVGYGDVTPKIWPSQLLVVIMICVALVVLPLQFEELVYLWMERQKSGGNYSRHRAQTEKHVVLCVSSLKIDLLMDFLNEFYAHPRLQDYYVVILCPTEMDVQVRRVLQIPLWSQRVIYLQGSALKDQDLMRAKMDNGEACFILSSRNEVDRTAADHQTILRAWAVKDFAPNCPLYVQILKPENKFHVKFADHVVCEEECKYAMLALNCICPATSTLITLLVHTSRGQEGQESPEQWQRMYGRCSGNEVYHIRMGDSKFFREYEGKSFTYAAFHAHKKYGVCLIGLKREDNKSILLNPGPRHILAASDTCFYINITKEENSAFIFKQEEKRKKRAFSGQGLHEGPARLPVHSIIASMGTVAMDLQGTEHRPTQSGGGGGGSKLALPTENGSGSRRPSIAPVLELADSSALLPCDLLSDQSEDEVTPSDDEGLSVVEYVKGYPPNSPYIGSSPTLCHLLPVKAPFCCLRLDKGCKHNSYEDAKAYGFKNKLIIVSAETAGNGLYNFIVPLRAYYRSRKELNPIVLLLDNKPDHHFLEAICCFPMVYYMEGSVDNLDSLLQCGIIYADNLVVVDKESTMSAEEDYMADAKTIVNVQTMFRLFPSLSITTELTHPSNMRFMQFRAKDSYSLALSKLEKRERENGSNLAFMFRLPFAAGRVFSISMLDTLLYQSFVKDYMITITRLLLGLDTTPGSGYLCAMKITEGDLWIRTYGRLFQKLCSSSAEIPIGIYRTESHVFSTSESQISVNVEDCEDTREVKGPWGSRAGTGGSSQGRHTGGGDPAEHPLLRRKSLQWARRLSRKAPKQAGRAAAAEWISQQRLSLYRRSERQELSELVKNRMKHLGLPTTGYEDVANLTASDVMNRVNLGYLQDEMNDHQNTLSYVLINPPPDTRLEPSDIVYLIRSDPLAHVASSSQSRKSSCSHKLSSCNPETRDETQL
Format: cell-based
Method: KCNT1—Patch Clamp Assay Inhibition of KCNT1 (KNa1.1, Slack) was evaluated using a tetracycline inducible cell line (HEK-TREX). Currents were recorded using the SyncroPatch 384PE automated, patch clamp system. Pulse generation and data collection were performed with PatchController384 V1.3.0 and DataController384 V1.2.1 (Nanion Technologies). The access resistance and apparent membrane capacitance were estimated using built-in protocols. Current were recorded in perforated patch mode (10 μM escin) from a population of cells. […] The cells were allowed to recover in the cell hotel prior to experimentation. Currents were recorded at room temperature. […] The extracellular solution was used as the wash, reference and compound delivery solution. […] Escin is made at a 5 mM stock in water, aliquoted, and stored at −20° C. The compound plate was created at 2× concentrated in the extracellular solution. The compound was diluted to 1:2 when added to the recording well. The amount of DMSO in the extracellular solution was held constant at the level used for the highest tested concentration. A holding potential of −80 mV with a 100 ms step to 0 mV was used. […] The average mean current from 3 sweeps was calculated and the % inhibition of each compound was calculated. The % Inhibition as a function of the compound concentration was fit with a Hill equation to derive IC50, slope, min and max parameters.
In the case of `C[C@H](NC(=O)c1cn(C)nc1C(F)F)c1nc(-c2cccc(F)c2)no1` [Compound 188, (S)-3-(difluoromethyl)-N-(1-(3-(3-fluorophenyl)-1,2,4-oxadiazol-5-yl)ethyl)-1-methyl-1H-pyrazole-4-carboxamide], the IC50 is reported as 1000 to 20000 nM.
With `C[C@H](NC(=O)c1cc(C(F)(F)F)nn1C)c1nc(-c2ccnc(C3CCC3)c2)no1` (single isomer, unassigned) [Compound 278] the IC50 was no more than 1000 nM.
`C[C@H](NC(=O)c1cc(C(F)(F)F)nn1C)c1nc(-c2ccc(F)c(F)c2)no1` (single isomer, unassigned) [Compound 77] gave an IC50 of no more than 1000 nM.
`COCCC(NC(=O)c1cc(C(F)(F)F)nn1C)c1nc(-c2cccc(F)c2)no1` (stereo not shown) [Compound 170] was tested, and the IC50 was no more than 1000 nM.
`C[C@H](NC(=O)c1cn(CC(F)(F)F)nc1C1CC1)c1nc(-c2cccc(F)c2)no1` [Compound 151] was tested, and the IC50 was 1000 to 20000 nM.
In the case of `CC(C)Oc1cc(-c2noc([C@H](C)NC(=O)OC(C)(C)C)n2)ccn1` [Compound 286, tert-butyl (S)-(1-(3-(2-isopropoxypyridin-4-yl)-1,2,4-oxadiazol-5-yl)ethyl)carbamate], the IC50 is reported as no more than 1000 nM.
`CC(C)COC(=O)N[C@@H](C)c1nc(-c2ccnc(C3CC3)c2)no1` [Compound 275] gave an IC50 of no more than 1000 nM.
For `Cn1nc(C(F)(F)F)cc1C(=O)N[C@H](CC(=O)NCCO)c1nc(-c2cccc(F)c2)no1` [Compound 122], the IC50 was no less than 20000 nM.
`CC[C@H](NC(=O)c1cc(C(F)(F)F)nn1C(F)F)c1nc(-c2ccnc(C)c2)no1` [Compound 221, (S)-1-(difluoromethyl)-N-(1-(3-(2-methylpyridin-4-yl)-1,2,4-oxadiazol-5-yl)propyl)-3-(trifluoromethyl)-1H-pyrazole-5-carboxamide] was tested, and the IC50 was no more than 1000 nM.
`CC(NC(=O)c1cc(C(F)(F)F)nn1C)c1nc(-c2ccnc(C3CCC3)c2)no1` (single isomer, unassigned) [Compound 279] showed an IC50 of no more than 1000 nM.
For `CC[C@H](NC(=O)c1cc(C(F)F)nn1C)c1nc(-c2cccc(F)c2)no1` [Compound 120], the IC50 was no more than 1000 nM.
With `C[C@H](NC(=O)c1cn(C)nc1C(F)F)c1nc(-c2ccnc(C(F)(F)F)c2)no1` [Compound 235] the IC50 was no more than 1000 nM.
In the case of `CC(NC(=O)c1cc(C2CC2)nn1C)c1nc(-c2cccc(F)c2)no1` (stereo not shown) [Compound 5], the IC50 is reported as no more than 1000 nM.
For `CCn1cc(C(=O)N[C@@H](C)c2nc(-c3cccc(F)c3)no2)c(C(F)(F)F)n1` [Compound 165], the IC50 was no more than 1000 nM.
`COCC(NC(=O)c1cc(C(F)(F)F)nn1C)c1nc(-c2cccc(C)c2)no1` (stereo not shown) [Compound 72] was tested, and the IC50 was no more than 1000 nM.
With `COCCn1nc(C(F)(F)F)cc1C(=O)N[C@@H](C)c1nc(-c2ccnc(C(F)(F)F)c2)no1` [Compound 239, (S)-1-(2-methoxyethyl)-3-(trifluoromethyl)-N-(1-(3-(2-(trifluoromethyl)pyridin-4-yl)-1,2,4-oxadiazol-5-yl)ethyl)-1H-pyrazole-5-carboxamide] the IC50 was no more than 1000 nM.
With `COc1cccc(-c2noc([C@H](C)NC(=O)OC(C)(C)C)n2)c1` [Compound 283, tert-butyl (S)-(1-(3-(3-methoxyphenyl)-1,2,4-oxadiazol-5-yl)ethyl)carbamate] the IC50 was 1000 to 20000 nM.
`CC(NC(=O)c1cc(C(F)(F)F)nn1C)c1nc(-c2cccc(S(N)(=O)=O)c2)no1` (stereo not shown) [Compound 180, 1-methyl-N-(1-(3-(3-sulfamoylphenyl)-1,2,4-oxadiazol-5-yl)ethyl)-3-(trifluoromethyl)-1H-pyrazole-5-carboxamide] was tested, and the IC50 was no less than 20000 nM.
`C[C@H](NC(=O)c1cc(C(F)(F)F)nn1CC(=O)N1CCCC1)c1nc(-c2ccnc(C(F)(F)F)c2)no1` [Compound 249, (S)-1-(2-oxo-2-(pyrrolidin-1-yl)ethyl)-3-(trifluoromethyl)-N-(1-(3-(2-(trifluoromethyl)pyridin-4-yl)-1,2,4-oxadiazol-5-yl)ethyl)-1H-pyrazole-5-carboxamide] was tested, and the IC50 was no more than 1000 nM.
In the case of `C[C@H](NC(=O)c1cc(C2CC2)nn1C)c1nc(-c2cccc(F)c2)no1` (single isomer, unassigned) [Compound 94], the IC50 is reported as no less than 20000 nM.
`COC(=O)NCC(NC(=O)c1cc(C(F)(F)F)nn1C)c1nc(-c2cccc(F)c2)no1` (stereo not shown) [Compound 168] showed an IC50 of 1000 to 20000 nM.
For `CN(Cc1nc(-c2ccnc(C3CC3)c2)no1)C(=O)c1cc(C(F)(F)F)nn1C` [Compound 302, N-[[3-(2-cyclopropyl-4-pyridyl)-1,2,4-oxadiazol-5-yl]methyl]-N,2-dimethyl-5-(trifluoromethyl)pyrazole-3-carboxamide], the IC50 was no more than 1000 nM.
`C[C@H](NC(=O)c1cc(C(F)(F)F)nn1CCN(C)C)c1nc(-c2ccnc(C(F)(F)F)c2)no1` [Compound 243, (S)-1-(2-(dimethylamino)ethyl)-3-(trifluoromethyl)-N-(1-(3-(2-(trifluoromethyl)pyridin-4-yl)-1,2,4-oxadiazol-5-yl)ethyl)-1H-pyrazole-5-carboxamide] showed an IC50 of no more than 1000 nM.
With `Cc1nn(C(C)C)cc1C(=O)N[C@@H](C)c1nc(-c2cc(F)cc(F)c2)no1` [Compound 92] the IC50 was no more than 1000 nM.
Molecule `CC(NC(=O)c1cc(C2CC2)nn1C)c1nc(-c2c(F)cccc2F)no1` (stereo not shown) [Compound 7] has an IC50 of no less than 20000 nM.
Work on `Cn1nc(C2CC2)cc1C(=O)NC(c1ccccc1)c1nc(-c2cccc(F)c2)no1` (stereo not shown) [Compound 51] yielded an IC50 of 1000 to 20000 nM.
In the case of `COCc1cc(-c2noc([C@H](C)NC(=O)OC(C)(C)C)n2)ccn1` [Compound 289, tert-butyl (S)-(1-(3-(2-(methoxymethyl)pyridin-4-yl)-1,2,4-oxadiazol-5-yl)ethyl)carbamate], the IC50 is reported as no less than 20000 nM.
With `Cn1nc(C(F)(F)F)cc1C(=O)NC(CNC(=O)OCc1ccccc1)c1nc(-c2cccc(F)c2)no1` (stereo not shown) [Compound 157, benzyl N-[2-[3-(3-fluorophenyl)-1,2,4-oxadiazol-5-yl]-2-[[2-methyl-5-(trifluoromethyl)pyrazole-3-carbonyl]amino]ethyl]carbamate] the IC50 was 1000 to 20000 nM.
In the case of `Cc1nn(C(C)C)cc1C(=O)NC(C)c1nc(-c2ccc(C(F)(F)F)cc2)no1` (stereo not shown) [Compound 98], the IC50 is reported as 1000 to 20000 nM.
With `Cc1nn(C(C)C)cc1C(=O)NC(C)c1nc(-c2cccc(OC(F)F)c2)no1` (stereo not shown) [Compound 101] the IC50 was 1000 to 20000 nM.
Work on `Cc1nn(C(C)C)cc1C(=O)N[C@@H](C)c1nc(-c2cccc(OC(F)(F)F)c2)no1` [Compound 100] yielded an IC50 of 1000 to 20000 nM.
For `C[C@@H](NC(=O)c1cc(C(F)(F)F)nn1C(F)F)c1nc(-c2cccc(Cl)c2)no1` (single isomer, unassigned) [Compound 82], the IC50 was no more than 1000 nM.
In the case of `C[C@H](NC(=O)OC(C)(C)C)c1nc(-c2ccnc(OC3CC3)c2)no1` [Compound 292, tert-butyl (S)-(1-(3-(2-cyclopropoxypyridin-4-yl)-1,2,4-oxadiazol-5-yl)ethyl)carbamate], the IC50 is reported as 1000 to 20000 nM.
`Cn1nc(C(F)(F)F)cc1C(=O)NC(CC#N)c1nc(-c2cccc(F)c2)no1` (stereo not shown) [Compound 140] showed an IC50 of 1000 to 20000 nM.
`Cn1nc(C(F)(F)F)cc1C(=O)NC(CC(=O)NCCO)c1nc(-c2cccc(F)c2)no1` (single isomer, unassigned) [Compound 121] showed an IC50 of no less than 20000 nM.
Work on `Cn1nc(C(F)(F)F)cc1C(=O)NC(c1nc(-c2cccc(F)c2)no1)C1COC1` (stereo not shown) [Compound 147] yielded an IC50 of 1000 to 20000 nM.
Molecule `C[C@H](NC(=O)c1cc(C(F)F)nn1C1CC1)c1nc(-c2cccc(F)c2)no1` [Compound 132] has an IC50 of no more than 1000 nM.
